≈ marks a conversion by molar mass, not a printed value.
Experiments:
[1] = tested on: Mycobacterium tuberculosis; experiment: Antitubercular activity against Mycobacterium tuberculosis H37Rv ATCC 27294 grown under Middlebrook 7H9 Broth assessed as inhibition of all visible growth incubated for 7 to 14 days; format: functional; conditions: time 7-14 day
[2] = Cytotoxicity in human MRC5 cells by neutral red uptake assay; format: cell-based
[3] = tested on: Mycobacterium tuberculosis; experiment: Antitubercular activity against Mycobacterium tuberculosis H37Rv ATCC 27294 grown under 7H9/ADC assessed as inhibition of all visible growth incubated for 7 to 14 days; format: functional; conditions: time 7-14 day
[4] = tested on: Mycobacterium tuberculosis; experiment: Antitubercular activity against Mycobacterium tuberculosis H37Rv ATCC 27294 grown under GAST/Fe medium assessed as inhibition of all visible growth incubated for 7 to 14 days; format: functional; conditions: time 7-14 day
[5] = tested on: Mycobacterium tuberculosis; experiment: Antitubercular activity against Mycobacterium tuberculosis H37Rv ATCC 27294 grown under 7H9/ glucose liquid culture in presence of BSA assessed as inhibition of all visible growth incubated for 7 to 14 days; format: functional; conditions: time 7-14 day
[6] = tested on: Mycobacterium tuberculosis; experiment: Ratio of MIC for antitubercular activity against Mycobacterium tuberculosis H37Rv ATCC 27294 grown under 7H9/ glucose liquid culture in presence of BSA to MIC for antitubercular activity against Mycobacterium tuberculosis H37Rv ATCC 27294 grown under 7H9/ glucose liquid culture; format: functional; conditions: read-out: MIC>99
[7] = tested on: Mycobacterium tuberculosis; experiment: Antitubercular activity against Mycobacterium tuberculosis H37Rv; format: functional
[8] = (§1) Inhibition of Mycobacterium tuberculosis thymidylate kinase in presence of ATP, dTMP, NADH and phosphoenol pyruvate by spectrophotometric assay
[9] = tested on: Mycobacterium tuberculosis; experiment: Antitubercular activity against Mycobacterium tuberculosis 14A1 deficient in nitroreductase rv3547 assessed as inhibition of all visible growth grown under 7H9/ glucose liquid culture incubated for 7 to 14 days; format: functional; conditions: time 7-14 day
[10] = Genotoxicity in Salmonella typhimurium TA98 up to 349 uM incubated for 48 hrs in absence of rat liver S9 fraction by Ames test; format: toxicity; conditions: salmonella enterica subsp. enterica serovar typhimurium, s9, 48 h
[11] = tested on: Mycobacterium tuberculosis; experiment: as §1

Compound | MIC99 [1] | CC50 [2] | other results
O=c1[nH]c(SCc2ccc([N+](=O)[O-])s2)nc2ccccc12 | 350 µM (≈ 112 µg/mL) | > 64 µM | –
Cc1ccc(CSc2nc(O)c3ccccc3n2)cc1 | > 50 µM | > 64 µM | –
O=c1[nH]c(SCc2cc([N+](=O)[O-])cc([N+](=O)[O-])c2)nc2c(Cl)cccc12 | > 50 µM | > 64 µM | –
O=c1[nH]c(SCc2ccc([N+](=O)[O-])cc2[N+](=O)[O-])nc2ccccc12 | > 50 µM | > 64 µM | –
COc1ccc(CSc2nc3ccccc3c(=O)[nH]2)cc1 | > 50 µM | > 64 µM | –
O=c1[nH]c(SCc2ccc(-c3ccccc3)cc2)nc2ccccc12 | > 50 µM | > 64 µM | –
O=c1[nH]c(SCc2ccc([N+](=O)[O-])cc2)nc2ccccc12 | ≥ 50 µM | > 64 µM | –
O=c1[nH]c(SCc2cc([N+](=O)[O-])cc([N+](=O)[O-])c2)nc2cnccc12 | > 50 µM | > 64 µM | –
Oc1nc(SCc2ccc(Cl)cc2)nc2ccccc12 | > 50 µM | > 64 µM | –
O=c1[nH]c(SCc2ccccc2[N+](=O)[O-])nc2ccccc12 | 12.5 µM (≈ 3.92 µg/mL) | > 64 µM | MIC99 [3]: > 50 µM; MIC99 [4]: 25 µM (≈ 7.83 µg/mL); MIC99 [5]: > 50 µM; MIC ratio, with BSA / without BSA [6]: > 4 µM
CCOC(=O)C1=C(NC(=O)c2c(F)c(F)c(F)c(F)c2F)OC2CN(CC)CCC12 (stereo unspecified) | – | – | MIC [7]: 0.69 µM
CCOC(=O)C1=C(NC(=O)c2c(F)c(F)c(F)c(F)c2F)OC(C(N)=O)C1C (stereo unspecified) | – | – | MIC [7]: 0.5 µM
O=c1[nH]c([S+]([O-])Cc2cc([N+](=O)[O-])cc([N+](=O)[O-])c2)nc2ccccc12 (stereo unspecified) | 50 µM (≈ 18.7 µg/mL) | > 64 µM | IC50 [8]: 217 µM
O=c1[nH]c(SCc2cc([N+](=O)[O-])cc([N+](=O)[O-])c2)nc2ccc(Cl)cc12 | 0.78 µM (≈ 0.306 µg/mL) | > 64 µM | MIC99 [3]: 4.7 µM (≈ 1.85 µg/mL); MIC99 [4]: 0.2 µM (≈ 0.0786 µg/mL); MIC99 [5]: 3.13 µM; MIC ratio, with BSA / without BSA [6]: 4 µM
CSc1cc(-c2ccccc2)nc(O)c1C#N | – | – | MIC [7]: > 64 µM
Cc1ccc2nc(SCc3cc([N+](=O)[O-])cc([N+](=O)[O-])c3)[nH]c(=O)c2c1 | 1.56 µM (≈ 0.581 µg/mL) | > 64 µM | MIC99 [4]: 1.56 µM (≈ 0.581 µg/mL); MIC99 [5]: 6.25 µM; MIC ratio, with BSA / without BSA [6]: 4 µM; MIC99 [9]: > 50 µM
CSc1nc(-c2cccc(Br)c2)c(C#N)c(=O)[nH]1 | 25 µM (≈ 8.05 µg/mL) | > 64 µM | IC50 [8]: 82 µM
O=c1[nH]c(SCc2ccc(Cl)c(Cl)c2)nc2ccccc12 | > 50 µM | > 64 µM | –
O=c1[nH]c(SCc2cc([N+](=O)[O-])cc([N+](=O)[O-])c2)nc2ccncc12 | > 50 µM | > 64 µM | –
CCOC(=O)c1c(-c2ccccc2)oc2ccc(O)c(CN3CCC(C)CC3)c12 | – | – | MIC [7]: 1 µg/mL
O=c1[nH]c(SCc2cc([N+](=O)[O-])cc([N+](=O)[O-])c2)nc2ccc(Br)cc12 | 3.13 µM (≈ 1.37 µg/mL) | > 64 µM | MIC99 [4]: 3.13 µM (≈ 1.37 µg/mL); MIC99 [5]: 37 µM; MIC ratio, with BSA / without BSA [6]: 11.8 µM; MIC99 [9]: > 50 µM
O=c1[nH]c(SCc2cc([N+](=O)[O-])cc(C(F)(F)F)c2)nc2ccccc12 | > 50 µM | > 64 µM | –
O=c1[nH]c(SCc2c([N+](=O)[O-])cccc2[N+](=O)[O-])nc2ccccc12 | > 50 µM | > 64 µM | –
N#Cc1c(-c2cccc(Br)c2)nc(SCc2cc([N+](=O)[O-])cc([N+](=O)[O-])c2)[nH]c1=O | > 64 µM | > 64 µM | IC50 [8]: 4.3 µM

Compound | MIC99 [1] | CC50 [2] | other results
O=c1[nH]c(SCc2ccccc2)nc2ccccc12 | 12.5 µM (≈ 3.35 µg/mL) | > 64 µM | MIC99 [3]: > 50 µM; MIC99 [4]: 19 µM (≈ 5.1 µg/mL); MIC99 [5]: > 50 µM; MIC ratio, with BSA / without BSA [6]: > 4 µM
CC1CCN(Cc2c(O)ccc3oc4c5ccccc5oc(=O)c4c23)CC1 | – | – | MIC [7]: 0.125 µg/mL
Oc1nc(SCc2cccc(Cl)c2)nc2ccccc12 | 3.13 µM (≈ 0.948 µg/mL) | > 64 µM | MIC99 [3]: > 50 µM; MIC99 [4]: 19 µM (≈ 5.75 µg/mL); MIC99 [5]: > 50 µM; MIC ratio, with BSA / without BSA [6]: > 16 µM
O=c1[nH]c(SCc2cc([N+](=O)[O-])cc([N+](=O)[O-])c2)nc2cc(Cl)ccc12 | 2.3 µM (≈ 0.903 µg/mL) | > 64 µM | MIC99 [3]: 25 µM (≈ 9.82 µg/mL); MIC99 [4]: 0.72 µM (≈ 0.283 µg/mL); MIC99 [5]: 25 µM; MIC ratio, with BSA / without BSA [6]: 10.8 µM
O=c1[nH]c(SCc2ccc([N+](=O)[O-])o2)nc2ccccc12 | > 50 µM | 35 µM | –
COc1ccccc1CSc1nc2ccccc2c(=O)[nH]1 | > 50 µM | – | –
O=C(CSc1nc2ccccc2c(=O)[nH]1)NC1CCCCC1 | – | – | MIC [7]: 0.3 µM
O=[N+]([O-])c1ccc2c(c1)Cc1ccccc1-2 [2-NITROFLUORENE] | – | – | Activity [10]: Toxic
O=c1[nH]c(SCc2cc([N+](=O)[O-])cc([N+](=O)[O-])c2)nc2ccc(N3CCCCC3)cc12 | > 50 µM | > 64 µM | –
O=c1[nH]c(SCc2cc([N+](=O)[O-])cc([N+](=O)[O-])c2)nc2ccc(F)cc12 | 1.2 µM (≈ 0.452 µg/mL) | > 64 µM | MIC99 [4]: 1.2 µM (≈ 0.452 µg/mL); MIC99 [5]: 6.25 µM; MIC ratio, with BSA / without BSA [6]: 52 µM; MIC99 [9]: 6.25 µM (≈ 2.35 µg/mL)
N#Cc1c(-c2cccc(Br)c2)nc(SCc2ccccc2)[nH]c1=O | 25 µM (≈ 9.96 µg/mL) | > 36 µM | IC50 [8]: 49 µM
O=c1[nH]c(SCc2ccccc2Cl)nc2ccccc12 | 2.3 µM (≈ 0.696 µg/mL) | > 65 µM | MIC99 [3]: > 50 µM; MIC99 [4]: 37 µM (≈ 11.2 µg/mL); MIC99 [5]: > 50 µM; MIC ratio, with BSA / without BSA [6]: > 21.7 µM
Cn1c(SCc2cc([N+](=O)[O-])cc([N+](=O)[O-])c2)nc2ccccc2c1=O | 1.56 µM (≈ 0.581 µg/mL) | > 64 µM | MIC99 [3]: 3.13 µM (≈ 1.17 µg/mL); MIC99 [4]: 0.39 µM (≈ 0.145 µg/mL); MIC99 [5]: 3.13 µM; MIC ratio, with BSA / without BSA [6]: 2 µM
O=c1[nH]c(SCc2cc([N+](=O)[O-])cc([N+](=O)[O-])c2)nc2cccc(Cl)c12 | ≥ 50 µM | > 64 µM | –
CN(C)c1ccc2nc(SCc3cc([N+](=O)[O-])cc([N+](=O)[O-])c3)[nH]c(=O)c2c1 | > 50 µM | 14 µM | –
O=c1[nH]c(SCc2cccc([N+](=O)[O-])c2)nc2ccccc12 | > 50 µM | > 64 µM | –
CN1CCN(c2ccc3nc(SCc4cc([N+](=O)[O-])cc([N+](=O)[O-])c4)[nH]c(=O)c3c2)CC1 | 9.4 µM (≈ 4.29 µg/mL) | 49 µM | MIC99 [4]: 9.4 µM (≈ 4.29 µg/mL); MIC99 [5]: 9.4 µM; MIC ratio, with BSA / without BSA [6]: 1 µM; MIC99 [9]: 37 µM (≈ 16.9 µg/mL)
NNC(=O)c1ccncc1 | – | – | MIC>99 [11]: 0.15 µM
O=C(CSc1nc2c(F)cccc2c(=O)[nH]1)NC1CCC(F)(F)CC1 | – | – | MIC [7]: 0.09 µM
O=c1[nH]c(SCc2cc([N+](=O)[O-])cc([N+](=O)[O-])c2)nc2ccc(N3CCOCC3)cc12 | 4.7 µM (≈ 2.08 µg/mL) | > 64 µM | MIC99 [4]: 3.13 µM (≈ 1.39 µg/mL); MIC99 [5]: 3.13 µM; MIC ratio, with BSA / without BSA [6]: 0.66 µM; MIC99 [9]: 19 µM (≈ 8.43 µg/mL)
O=c1[nH]c(SCc2cccs2)nc2ccccc12 | > 50 µM | > 64 µM | –
O=c1[nH]c(SCc2cc([N+](=O)[O-])cc([N+](=O)[O-])c2)nc2ncccc12 | ≥ 50 µM | > 64 µM | –
O=c1[nH]c(SCc2cc([N+](=O)[O-])cc([N+](=O)[O-])c2)nc2cccnc12 | 19 µM (≈ 6.83 µg/mL) | > 64 µM | MIC99 [4]: 12.5 µM (≈ 4.49 µg/mL); MIC99 [5]: > 50 µM; MIC ratio, with BSA / without BSA [6]: > 2.6 µM; MIC99 [9]: 50 µM (≈ 18 µg/mL)
COc1cccc(CSc2nc3ccccc3c(=O)[nH]2)c1 | 0.78 µM (≈ 0.233 µg/mL) | > 64 µM | MIC99 [3]: > 50 µM; MIC99 [4]: 50 µM (≈ 14.9 µg/mL); MIC99 [5]: > 50 µM; MIC ratio, with BSA / without BSA [6]: > 64 µM
